Measured values reported in US11771660B2, “Flavonoid polyphenol drug self-emulsifying composition, preparation method therefor, pharmaceutical composition thereof and application thereof” (priority 2019, dated 2023).

Legend:
[1] = Plasma pharmacokinetics after gavage in rats; format: in vivo, Sprague-Dawley rats; conditions: gavage 40 mg/kg
Protocol: Test group B: The self-emulsifying composition of baicalein encapsulating baicalein ingredient in Comparative Example 1 (hereinafter labeled OBA-SMEDDS) was administered.
Test group C: Baicalein ingredient (hereinafter labeled BA) was administered.
Sprague-Dawley rats (male, 200 g) were fed for one week before tests, forbidden to eat rather than drink the night before the tests, and supplied with water freely during the tests.
15 rats were randomly divided into three groups (test group A, test group B and test group C, separately), with 5 rats in each group. Gavage (2-3 mL) was provided at a dose of 40 mg/kg. 0.3 mL of blood was taken from the retro-orbital venous plexus at 5, 15, 30, 45, 60 and 75 min and 3, 6, 8, 10, 12 and 24 h after administration, placed in a pre-heparinized 1.5 mL conical centrifuge tube, and centrifuged at 4000 r/min for 15 min. The upper plasma was aspirated, stored in the refrigerator at −80° C., and thawed at normal temperature before determination.
Treatment of plasma samples: 100 μL of plasma was taken, placed in a 1.5 mL conical centrifuge tube, added with 10 μL of ascorbic acid (200 mg/mL), 20 μL of an internal standard solution (500 ng/ml) and 300 μL of methanol, vortexed for 60 s, and centrifuged at 12000 r/min for 10 min. Then, the supernatant was aspirated, placed in a centrifuge tube, concentrated through centrifugation to remove the solvent (40° C.), added with 200 μL of methanol:water (80:20) to be dissolved, vortexed for 30 s, and centrifuged at 12000 r/min for 5 min. 20 μL of the supernatant was injected and the plasma concentration was determined under the following chromatography conditions (liquid chromatography-mass spectrometry).
Chromatography column: Agilent ZORBAX SB C18 column (250 mm×4.6 mm, […]);
Column temperature: 25° C.;
Mobile phase (gradient elution, see Table 11): acetonitrile-0.1% formic acid as an eluent.
Electrospray ion source (ESI), positive ion mode, multiple reaction monitoring (MRM);
Other parameters: an atomizer pressure of 40 psi, a drying gas flowrate of 9 L/min, a drying gas temperature of 350° C., a capillary voltage of 4000V and a split ratio of 1:2.
MRM detection ion pair for quantification: baicalin [M+H]+ 447.0→271.1;

[2] = Saturated solubility in oil phase and blank self-emulsifying concentrate; format: physicochemical; conditions: room temperature 24 hours
Protocol: They were placed at room temperature for 24 hours to observe whether the drug was precipitated. If no drug was precipitated, an appropriate amount of each phospholipid complex was added and operated in the same manner until the drug was precipitated. The supernatant was taken and centrifuged at 12000 r/min for 20 min. Then, the supernatant was taken and the saturated solubility of each flavonoid polyphenol drug-phospholipid complex in the oil phase and the blank self-emulsifying concentrate was determined by the preceding HPLC method.

[3] = male, Sprague-Dawley, rat, po, baicalein in plasma

O=c1cc(-c2ccccc2)oc2cc(O)c(O)c(O)c12 [BA, baicalein]
AUC (0-t) ([1]; baicalein in plasma): 15864.8 µg·min/L
AUC (0-∞) ([1]; baicalein in plasma): 15880.4 µg·min/L
Cmax [1, 3]: 99.1 ± 42 ng/mL
Tmax [1, 3]: 1.25 h
MRT last ([1]; male, Sprague-Dawley, rat, po, baicalein in plasma, read-out: MRT (0-t) (converted)): 4 h
MRT inf ([1]; male, Sprague-Dawley, rat, po, baicalein in plasma, read-out: MRT (0-∞) (converted)): 4.01 h
bioavailability ([1]; male, Sprague-Dawley, rat, po, relative to baicalein ingredient, based on baicalein in plasma): 100%
saturated solubility in the blank self-emulsifying concentrate (drug load of the self-emulsifying composition) ([2]; ethyl oleate:labraosol:transcutol HP 2:5:3): 20 mg/g
saturated solubility in oil ([2]; oil phase ethyl oleate): 0.3 mg/g
